Laboratory results as given in the kinase profiling compilation of Christmann-Franck et al. (2016).
One block for each molecule: values may come before it.

Columns and labels:
Test in all cases: radiometric filter-binding kinase assay
[1] = target: EEF2K (human) (UniProt O00418)
[2] = target: MAPK15 (human) (UniProt Q8TD08)
[3] = system: AKT1 (human), P31749 [S473D]
[4] = target: MAP2K2 (human) (UniProt P36507)
[5] = target: NEK6 (human) (UniProt Q9HC98)
[6] = target: STK11 CAB39 STRADA (human) (UniProt Q9Y376+Q7RTN6+Q15831)
[7] = target: CSK (human) (UniProt P41240)
[8] = target: CSNK1D (human) (UniProt P48730)
[9] = target: MKNK2 (human) (UniProt Q9HBH9)
[10] = target: BRSK1 (human) (UniProt Q8TDC3)
[11] = target: GSK3B (human) (UniProt P49841)
[12] = target: RPS6KA3 KD1 KD2 (human) (UniProt P51812)
[13] = target: IKBKB (human) (UniProt O14920)
[14] = target: MAPK3 (human) (UniProt P27361)
[15] = target: TBK1 (human) (UniProt Q9UHD2)
[16] = target: RPS6KA5 KD1 KD2 (human) (UniProt O75582)
[17] = target: MAPK8 (human) (UniProt P45983)
[18] = system: PAK2 (human), Q13177 [T402E]
[19] = target: PLK1 (human) (UniProt P53350)
[20] = target: ERBB4 (human) (UniProt Q15303)
[21] = target: HIPK1 (human) (UniProt Q86Z02)
[22] = target: HIPK3 (human) (UniProt Q9H422)
[23] = target: FGFR1 (human) (UniProt P11362)
[24] = target: MAP3K1 (human) (UniProt Q13233)
[25] = target: MAPKAPK3 (human) (UniProt Q16644)
[26] = target: PAK7 (human) (UniProt Q9P286)
[27] = target: MAPK9 (human) (UniProt P45984)
[28] = target: MAP3K5 (human) (UniProt Q99683)
[29] = target: AURKA (human) (UniProt O14965)
[30] = target: SRPK1 (human) (UniProt Q96SB4)
[31] = target: BRSK2 (human) (UniProt Q8IWQ3)
[32] = target: MAP2K6 (human) (UniProt P52564)
[33] = target: BTK (human) (UniProt Q06187)
[34] = target: EPHA4 (human) (UniProt P54764)
[35] = target: MAPK1 (human) (UniProt P28482)

Chain of MAPK3 (human) (P27361 whole entry, looked up): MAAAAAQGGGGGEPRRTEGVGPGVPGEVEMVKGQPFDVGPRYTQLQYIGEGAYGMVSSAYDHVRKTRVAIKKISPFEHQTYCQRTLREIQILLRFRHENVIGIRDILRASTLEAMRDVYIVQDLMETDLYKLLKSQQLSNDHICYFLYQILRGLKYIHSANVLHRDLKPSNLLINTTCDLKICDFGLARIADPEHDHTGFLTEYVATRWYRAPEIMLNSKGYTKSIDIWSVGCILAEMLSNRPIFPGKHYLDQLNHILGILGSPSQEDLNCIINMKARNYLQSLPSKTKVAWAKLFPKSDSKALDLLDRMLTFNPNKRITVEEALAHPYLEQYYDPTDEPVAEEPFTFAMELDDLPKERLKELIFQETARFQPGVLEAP
Chain of MAP2K2 (human) (P36507 whole entry, looked up): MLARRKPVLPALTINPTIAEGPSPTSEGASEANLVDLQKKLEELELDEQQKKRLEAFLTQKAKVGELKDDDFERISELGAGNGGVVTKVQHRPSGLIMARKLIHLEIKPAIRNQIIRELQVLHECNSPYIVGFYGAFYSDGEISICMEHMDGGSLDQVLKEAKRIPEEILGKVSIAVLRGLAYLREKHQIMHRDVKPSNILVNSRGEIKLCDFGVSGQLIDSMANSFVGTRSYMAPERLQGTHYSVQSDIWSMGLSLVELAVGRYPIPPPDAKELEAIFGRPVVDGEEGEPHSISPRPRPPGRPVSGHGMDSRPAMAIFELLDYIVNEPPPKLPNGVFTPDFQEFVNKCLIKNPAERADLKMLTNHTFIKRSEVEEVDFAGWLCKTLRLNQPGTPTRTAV
Chain of MAPK9 (human) (P45984 whole entry, looked up): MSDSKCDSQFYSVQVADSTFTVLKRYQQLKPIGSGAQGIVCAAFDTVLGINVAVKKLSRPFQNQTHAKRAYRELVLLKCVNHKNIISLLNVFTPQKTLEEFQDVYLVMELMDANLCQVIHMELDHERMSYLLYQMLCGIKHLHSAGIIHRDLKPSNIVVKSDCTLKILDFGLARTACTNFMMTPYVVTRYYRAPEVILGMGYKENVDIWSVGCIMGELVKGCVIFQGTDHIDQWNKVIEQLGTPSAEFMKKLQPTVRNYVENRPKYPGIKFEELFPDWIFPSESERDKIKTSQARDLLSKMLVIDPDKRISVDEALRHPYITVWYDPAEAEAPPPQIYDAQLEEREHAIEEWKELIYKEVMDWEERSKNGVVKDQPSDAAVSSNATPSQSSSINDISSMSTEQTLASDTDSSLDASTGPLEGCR
Chain of PLK1 (human) (P53350 whole entry, looked up): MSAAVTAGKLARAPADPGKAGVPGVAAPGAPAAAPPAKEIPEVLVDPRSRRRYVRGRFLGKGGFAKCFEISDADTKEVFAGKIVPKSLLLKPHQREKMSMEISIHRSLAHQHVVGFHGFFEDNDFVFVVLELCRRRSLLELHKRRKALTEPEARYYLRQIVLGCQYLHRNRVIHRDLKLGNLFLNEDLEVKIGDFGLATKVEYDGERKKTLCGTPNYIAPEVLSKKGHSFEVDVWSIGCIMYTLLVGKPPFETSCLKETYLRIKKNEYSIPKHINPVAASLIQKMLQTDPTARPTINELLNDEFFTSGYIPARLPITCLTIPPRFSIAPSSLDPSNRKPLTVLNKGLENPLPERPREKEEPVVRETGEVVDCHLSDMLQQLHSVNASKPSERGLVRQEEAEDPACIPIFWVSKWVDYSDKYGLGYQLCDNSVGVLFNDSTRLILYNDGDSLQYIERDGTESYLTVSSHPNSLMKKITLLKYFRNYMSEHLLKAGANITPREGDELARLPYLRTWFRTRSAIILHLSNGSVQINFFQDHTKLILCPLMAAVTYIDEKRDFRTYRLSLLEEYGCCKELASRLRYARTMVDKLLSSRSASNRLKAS
Chain of HIPK1 (human) (Q86Z02 whole entry, looked up): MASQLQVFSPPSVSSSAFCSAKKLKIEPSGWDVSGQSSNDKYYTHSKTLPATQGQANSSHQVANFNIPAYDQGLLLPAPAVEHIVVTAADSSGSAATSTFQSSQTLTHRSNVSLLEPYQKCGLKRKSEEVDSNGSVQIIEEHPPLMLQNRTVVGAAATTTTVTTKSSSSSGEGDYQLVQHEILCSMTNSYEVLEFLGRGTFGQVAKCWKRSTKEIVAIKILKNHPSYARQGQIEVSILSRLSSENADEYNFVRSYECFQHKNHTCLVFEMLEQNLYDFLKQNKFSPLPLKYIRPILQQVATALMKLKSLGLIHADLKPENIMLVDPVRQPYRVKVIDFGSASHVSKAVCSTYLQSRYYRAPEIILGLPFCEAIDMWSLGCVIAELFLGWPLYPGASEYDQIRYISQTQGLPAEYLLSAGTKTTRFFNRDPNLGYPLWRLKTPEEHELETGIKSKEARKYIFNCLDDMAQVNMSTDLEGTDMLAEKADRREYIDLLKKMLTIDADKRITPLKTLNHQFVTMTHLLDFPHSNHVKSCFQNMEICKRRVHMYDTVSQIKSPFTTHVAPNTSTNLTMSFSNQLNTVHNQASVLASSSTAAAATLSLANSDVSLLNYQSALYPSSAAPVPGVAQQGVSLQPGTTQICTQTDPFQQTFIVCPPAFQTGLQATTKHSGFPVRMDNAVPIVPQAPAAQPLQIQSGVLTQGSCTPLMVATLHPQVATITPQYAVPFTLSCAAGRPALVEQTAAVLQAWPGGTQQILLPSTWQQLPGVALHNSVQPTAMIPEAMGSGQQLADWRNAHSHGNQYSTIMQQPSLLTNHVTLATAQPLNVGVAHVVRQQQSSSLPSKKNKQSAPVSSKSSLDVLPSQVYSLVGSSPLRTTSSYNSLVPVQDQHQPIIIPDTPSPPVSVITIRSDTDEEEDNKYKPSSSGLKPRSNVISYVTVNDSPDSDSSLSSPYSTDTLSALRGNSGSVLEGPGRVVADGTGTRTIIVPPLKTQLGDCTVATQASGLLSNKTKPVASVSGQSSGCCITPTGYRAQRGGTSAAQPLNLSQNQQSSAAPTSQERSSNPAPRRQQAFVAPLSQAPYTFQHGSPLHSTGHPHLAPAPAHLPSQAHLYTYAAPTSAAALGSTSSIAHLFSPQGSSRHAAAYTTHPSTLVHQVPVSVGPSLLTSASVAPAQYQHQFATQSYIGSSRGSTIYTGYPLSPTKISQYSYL
Chain of EEF2K (human) (O00418 whole entry, looked up): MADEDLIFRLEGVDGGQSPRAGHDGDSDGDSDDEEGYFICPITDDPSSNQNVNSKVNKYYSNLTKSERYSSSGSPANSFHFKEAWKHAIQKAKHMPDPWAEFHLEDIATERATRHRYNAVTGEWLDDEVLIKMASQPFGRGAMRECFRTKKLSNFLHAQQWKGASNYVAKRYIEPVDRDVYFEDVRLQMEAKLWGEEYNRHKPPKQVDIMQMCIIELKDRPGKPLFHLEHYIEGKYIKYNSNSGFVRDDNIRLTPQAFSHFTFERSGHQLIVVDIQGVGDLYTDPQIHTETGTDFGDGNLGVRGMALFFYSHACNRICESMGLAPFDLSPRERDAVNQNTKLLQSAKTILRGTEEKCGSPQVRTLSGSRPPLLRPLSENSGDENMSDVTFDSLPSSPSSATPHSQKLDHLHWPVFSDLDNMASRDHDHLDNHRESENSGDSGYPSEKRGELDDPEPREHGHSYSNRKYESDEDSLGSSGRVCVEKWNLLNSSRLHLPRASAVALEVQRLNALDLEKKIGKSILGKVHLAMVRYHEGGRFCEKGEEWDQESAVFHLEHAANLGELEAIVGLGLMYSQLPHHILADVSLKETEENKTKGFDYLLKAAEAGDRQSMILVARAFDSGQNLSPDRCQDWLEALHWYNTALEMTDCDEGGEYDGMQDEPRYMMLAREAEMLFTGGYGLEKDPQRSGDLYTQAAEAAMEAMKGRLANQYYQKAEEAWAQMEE
Chain of BRSK1 (human) (Q8TDC3 whole entry, looked up): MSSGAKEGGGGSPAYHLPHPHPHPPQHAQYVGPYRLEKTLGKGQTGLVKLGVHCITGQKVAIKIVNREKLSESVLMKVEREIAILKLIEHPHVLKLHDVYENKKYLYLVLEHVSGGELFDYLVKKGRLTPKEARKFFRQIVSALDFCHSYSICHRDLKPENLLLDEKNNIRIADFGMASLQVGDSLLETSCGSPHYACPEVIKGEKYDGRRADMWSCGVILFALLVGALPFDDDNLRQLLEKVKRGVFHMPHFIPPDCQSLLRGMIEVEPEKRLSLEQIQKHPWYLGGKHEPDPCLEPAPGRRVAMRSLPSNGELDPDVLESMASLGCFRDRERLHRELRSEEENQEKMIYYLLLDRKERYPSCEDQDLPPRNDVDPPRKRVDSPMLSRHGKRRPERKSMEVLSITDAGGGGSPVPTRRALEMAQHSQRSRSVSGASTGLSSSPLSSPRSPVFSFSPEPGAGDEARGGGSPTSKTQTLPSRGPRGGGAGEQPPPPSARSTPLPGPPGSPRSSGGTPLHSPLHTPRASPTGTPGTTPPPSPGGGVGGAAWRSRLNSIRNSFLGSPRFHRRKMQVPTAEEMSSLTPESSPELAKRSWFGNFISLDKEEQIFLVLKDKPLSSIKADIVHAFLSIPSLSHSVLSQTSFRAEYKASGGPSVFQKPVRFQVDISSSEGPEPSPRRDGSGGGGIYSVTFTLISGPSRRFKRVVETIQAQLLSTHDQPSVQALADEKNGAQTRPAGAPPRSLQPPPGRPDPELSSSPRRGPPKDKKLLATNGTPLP
Chain of MAPKAPK3 (human) (Q16644 whole entry, looked up): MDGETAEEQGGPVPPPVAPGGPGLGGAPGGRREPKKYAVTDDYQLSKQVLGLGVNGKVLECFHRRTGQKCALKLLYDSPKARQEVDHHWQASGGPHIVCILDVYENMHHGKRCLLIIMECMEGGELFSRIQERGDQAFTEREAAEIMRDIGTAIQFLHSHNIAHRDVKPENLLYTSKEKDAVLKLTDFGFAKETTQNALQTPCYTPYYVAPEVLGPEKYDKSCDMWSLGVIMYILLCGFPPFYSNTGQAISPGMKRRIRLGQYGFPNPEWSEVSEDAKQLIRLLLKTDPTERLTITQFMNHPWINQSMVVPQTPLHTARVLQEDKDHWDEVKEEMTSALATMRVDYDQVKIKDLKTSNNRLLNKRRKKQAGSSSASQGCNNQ

residual activity ([1]; compound 0.1 µM): 93% | residual activity ([1]; compound 1.0 µM): 76% | residual activity ([1]; compound 10.0 µM): 69% | residual activity ([3]; compound 0.1 µM): 99% | residual activity ([3]; compound 1.0 µM): 97% | residual activity ([4]; compound 0.1 µM): 104% | residual activity ([4]; compound 1.0 µM): 103% | residual activity ([4]; compound 10.0 µM): 109% | residual activity ([5]; compound 0.1 µM): 92% | residual activity ([5]; compound 1.0 µM): 86% | residual activity ([5]; compound 10.0 µM): 84% | residual activity ([6]; compound 0.1 µM): 93% | residual activity ([6]; compound 1.0 µM): 89% | residual activity ([6]; compound 10.0 µM): 98% | residual activity ([7]; compound 0.1 µM): 104% | residual activity ([7]; compound 1.0 µM): 101% | residual activity ([7]; compound 10.0 µM): 98% | residual activity ([8]; compound 0.1 µM): 88% | residual activity ([8]; compound 1.0 µM): 87% | residual activity ([8]; compound 10.0 µM): 81% | residual activity ([9]; compound 0.1 µM): 111% | residual activity ([9]; compound 1.0 µM): 98% | residual activity ([9]; compound 10.0 µM): 102% | residual activity ([10]; compound 0.1 µM): 114% | residual activity ([10]; compound 1.0 µM): 111% | residual activity ([10]; compound 10.0 µM): 97% | residual activity ([11]; compound 0.1 µM): 83% | residual activity ([11]; compound 1.0 µM): 88% | residual activity ([11]; compound 10.0 µM): 71% | residual activity ([12]; compound 0.1 µM): 87% | residual activity ([12]; compound 1.0 µM): 95% | residual activity ([12]; compound 10.0 µM): 81% | residual activity ([13]; compound 0.1 µM): 91% | residual activity ([13]; compound 1.0 µM): 97% | residual activity ([13]; compound 10.0 µM): 100% | residual activity ([14]; compound 1.0 µM): 97% | residual activity ([14]; compound 10.0 µM): 85% | residual activity ([15]; compound 0.1 µM): 111% | residual activity ([15]; compound 10.0 µM): 93% | residual activity ([16]; compound 0.1 µM): 110% | residual activity ([16]; compound 1.0 µM): 104% | residual activity ([16]; compound 10.0 µM): 95% | residual activity ([17]; compound 0.1 µM): 98% | residual activity ([17]; compound 1.0 µM): 94% | residual activity ([18]; compound 0.1 µM): 113% | residual activity ([18]; compound 1.0 µM): 103% | residual activity ([18]; compound 10.0 µM): 113% | residual activity ([19]; compound 0.1 µM): 106% | residual activity ([19]; compound 1.0 µM): 94% | residual activity ([19]; compound 10.0 µM): 96% | residual activity ([20]; compound 0.1 µM): 127% | residual activity ([20]; compound 10.0 µM): 105% | residual activity ([21]; compound 0.1 µM): 92% | residual activity ([21]; compound 1.0 µM): 112% | residual activity ([21]; compound 10.0 µM): 94% | residual activity ([22]; compound 0.1 µM): 118% | residual activity ([22]; compound 1.0 µM): 112% | residual activity ([22]; compound 10.0 µM): 102% | residual activity ([23]; compound 0.1 µM): 115% | residual activity ([23]; compound 1.0 µM): 111% | residual activity ([23]; compound 10.0 µM): 104% | residual activity ([24]; compound 0.1 µM): 93% | residual activity ([24]; compound 1.0 µM): 99% | residual activity ([24]; compound 10.0 µM): 89% | residual activity ([25]; compound 0.1 µM): 115% | residual activity ([25]; compound 1.0 µM): 119% | residual activity ([25]; compound 10.0 µM): 123% | residual activity ([26]; compound 0.1 µM): 104% | residual activity ([26]; compound 1.0 µM): 100% | residual activity ([26]; compound 10.0 µM): 101% | residual activity ([27]; compound 0.1 µM): 85% | residual activity ([27]; compound 1.0 µM): 90% | residual activity ([27]; compound 10.0 µM): 88% | residual activity ([28]; compound 0.1 µM): 115% | residual activity ([28]; compound 1.0 µM): 99% | residual activity ([28]; compound 10.0 µM): 94% | residual activity ([29]; compound 0.1 µM): 116% | residual activity ([29]; compound 1.0 µM): 105% | residual activity ([29]; compound 10.0 µM): 92% | residual activity ([30]; compound 0.1 µM): 92% | residual activity ([30]; compound 1.0 µM): 89% | residual activity ([30]; compound 10.0 µM): 83% | residual activity ([31]; compound 0.1 µM): 130% | residual activity ([31]; compound 1.0 µM): 108% | residual activity ([31]; compound 10.0 µM): 108% | residual activity ([32]; compound 0.1 µM): 102% | residual activity ([32]; compound 1.0 µM): 98% | residual activity ([32]; compound 10.0 µM): 99% | residual activity ([33]; compound 1.0 µM): 103% | residual activity ([33]; compound 10.0 µM): 103% | residual activity ([34]; compound 0.1 µM): 100% | residual activity ([34]; compound 1.0 µM): 101% | residual activity ([34]; compound 10.0 µM): 96% | residual activity ([35]; compound 0.1 µM): 98% | residual activity ([35]; compound 1.0 µM): 90% | residual activity ([35]; compound 10.0 µM): 100%
Compound: CCCCCc1ccc(/C=C/[C@H](O)[C@@H](CO)NC)cc1
residual activity ([2]; compound 0.1 µM): 82% | residual activity ([2]; compound 1.0 µM): 86% | residual activity ([2]; compound 10.0 µM): 77%

residual activity ([1]; compound 1.0 µM): 83% | residual activity ([1]; compound 10.0 µM): 87% | residual activity ([3]; compound 1.0 µM): 108% | residual activity ([3]; compound 10.0 µM): 102% | residual activity ([4]; compound 1.0 µM): 58% | residual activity ([4]; compound 10.0 µM): 35% | residual activity ([5]; compound 1.0 µM): 99% | residual activity ([5]; compound 10.0 µM): 91% | residual activity ([6]; compound 1.0 µM): 103% | residual activity ([6]; compound 10.0 µM): 95% | residual activity ([7]; compound 1.0 µM): 98% | residual activity ([7]; compound 10.0 µM): 87% | residual activity ([8]; compound 1.0 µM): 97% | residual activity ([8]; compound 10.0 µM): 102% | residual activity ([9]; compound 1.0 µM): 90% | residual activity ([9]; compound 10.0 µM): 93% | residual activity ([10]; compound 1.0 µM): 95% | residual activity ([10]; compound 10.0 µM): 93% | residual activity ([11]; compound 1.0 µM): 102% | residual activity ([11]; compound 10.0 µM): 99% | residual activity ([12]; compound 1.0 µM): 98% | residual activity ([12]; compound 10.0 µM): 94% | residual activity ([13]; compound 1.0 µM): 87% | residual activity ([13]; compound 10.0 µM): 88% | residual activity ([14]; compound 1.0 µM): 125% | residual activity ([14]; compound 10.0 µM): 115% | residual activity ([15]; compound 1.0 µM): 99% | residual activity ([15]; compound 10.0 µM): 91% | residual activity ([16]; compound 1.0 µM): 98% | residual activity ([16]; compound 10.0 µM): 95% | residual activity ([17]; compound 1.0 µM): 85% | residual activity ([17]; compound 10.0 µM): 87% | residual activity ([18]; compound 1.0 µM): 101% | residual activity ([18]; compound 10.0 µM): 100% | residual activity ([19]; compound 1.0 µM): 96% | residual activity ([19]; compound 10.0 µM): 82% | residual activity ([20]; compound 10.0 µM): 106% | residual activity ([21]; compound 1.0 µM): 118% | residual activity ([21]; compound 10.0 µM): 103% | residual activity ([22]; compound 1.0 µM): 100% | residual activity ([22]; compound 10.0 µM): 96% | residual activity ([23]; compound 1.0 µM): 101% | residual activity ([24]; compound 1.0 µM): 106% | residual activity ([24]; compound 10.0 µM): 103% | residual activity ([25]; compound 1.0 µM): 92% | residual activity ([25]; compound 10.0 µM): 84% | residual activity ([26]; compound 1.0 µM): 88% | residual activity ([26]; compound 10.0 µM): 96% | residual activity ([27]; compound 1.0 µM): 85% | residual activity ([27]; compound 10.0 µM): 86% | residual activity ([28]; compound 10.0 µM): 99% | residual activity ([29]; compound 1.0 µM): 106% | residual activity ([29]; compound 10.0 µM): 107% | residual activity ([30]; compound 1.0 µM): 95% | residual activity ([30]; compound 10.0 µM): 89% | residual activity ([31]; compound 1.0 µM): 106% | residual activity ([31]; compound 10.0 µM): 96% | residual activity ([32]; compound 1.0 µM): 106% | residual activity ([32]; compound 10.0 µM): 88% | residual activity ([33]; compound 1.0 µM): 119% | residual activity ([33]; compound 10.0 µM): 115% | residual activity ([34]; compound 1.0 µM): 106% | residual activity ([34]; compound 10.0 µM): 99% | residual activity ([35]; compound 1.0 µM): 95% | residual activity ([35]; compound 10.0 µM): 97%
Compound: Cc1ccc(=O)n(-c2ccccc2)c1
residual activity ([2]; compound 1.0 µM): 95% | residual activity ([2]; compound 10.0 µM): 86%
